Here are results for three substances from paper PMC2192203 (The Journal of Experimental Medicine, 1995).

Assay [1] concerns I-Ek MHC class II molecules. The following applies: Fig. 2 A legend; control peptide; no reference given; cited from earlier work.
The target in assay [2] is I-Ed MHC class II molecules (Mus musculus, UniProt P01904+P01915). Conditions: Fig. 2 B legend; control peptide; no reference given; cited from earlier work.
The test system of assay [3] is MHC class II-restricted presentation by APCs. The following applies: cited from earlier work.
Assay [4] deals with CD4+ T cell line P69.2 (Ed-restricted, Ld 61-80-specific). Briefly: T cell line P69.2 proliferation assay. The assay is classed as cell-based, mouse. The following applies: for natural presentation of self-peptide: no exogenously added peptide.
Assay [5] relates to CD4+ T cell line B10.A-P11.2 (Ek-restricted, Ld 61-80-specific). Briefly: T cell line B10.A-P11.2 proliferation assay. The assay is classed as cell-based, mouse. The following applies: no added peptide.
Assay [6] relates to lymph node cells from mice immunized with the peptide. The following applies: syngeneic B10.A mice; cited from earlier work.
For assay [7], the system named is BALB/c-dm2 lymph node T cells primed with Ld 61-80. Briefly: T cell determinant mapping with overlapping 12 mers. The following applies: dm2 mice primed with Ld 61-80, single residue steps, Fig. 4. The assay is classed as cell-based, mouse.
Assay [8] deals with T cells from Ld 61-80-primed B10.A mice. Conditions: H-2k class II-restricted; cited from earlier work.
For assay [9], the system named is lymph node cells from mice immunized with the peptide. Briefly: Lymph node / spleen T cell proliferation assay of peptide-immunized mice. The class given is cell-based, mouse.

For “HEL 1-17: known binder peptide in the I-Ek competition assay (KVFGRCELAAAMKRHGL; UniProt P00698 19-35, looked up, fragment)”, the “binding to I-Ek (control designation)” value in [1] was “known binder”.

As for “HEL 105-120: hen egg white lysozyme (HEL) 105-120 peptide known for its binding to Ed (MNAWVAWRNRCKGTDV; UniProt P00698 123-138, looked up, fragment)”, the “binding to I-Ed (control designation)” value in assay [2] is reported as “known binder”.

For the substance EtLITQIAKGQEQWFILVNLR,T [Ld 61-80], in [3] (BALB/c APCs, self-MHC class II), the “in vitro presentation by BALB/c APCs” value is listed as “regularly presented in vitro”. The “stimulation of Ld 61-80-specific class II-restricted T cell hybridoma” value in assay [3] (Ii-positive and -negative APCs) is “could be stimulated in the presence of both Ii- positive and -negative APCs”. The “TAP-1 requirement of class II presentation” value in assay [3] is on record as “does not require a functional TAP-1 protein”. The “natural presentation of self-peptide” value in [4] ((B10.A x B10.D2) F1 APCs, Fig. 3 C) was “could not spontaneously process and present”; in [4] (BALB/c APCs, Fig. 3 B), “continuously process and present”; in assay [5] (B10.A splenocytes, Fig. 3 A), “did not naturally process”; in [5] (B10.A(5R) APCs, Fig. 7) it was “present spontaneously”. The “stimulation of P69.2 in presence of specific peptide” value in [4] (B10.GD splenocytes (lacking Ed) as APCs) is reported as “could not stimulate”. Moreover, the “stimulation of P69.2 by added peptide” value in assay [4] (dm2 APCs, 60 h, [3H]thymidine last 12 h, Fig. 3 B) was “required”. In addition, the “T cell response induced” value in assay [6] is recorded as “potent MHC class II-restricted T cell responses”. In addition, the “core region of determinant (residues)” value in [7] is given as 69-76; in assay [8] it was 66-74. Further, the immunogenicity entry in [9] ((B10.A x B10.D2) F1 mice (Fig. 1 D)) was “immunogenic and therefore cryptic”; in assay [9] (A/J mice (Table 1)), “vigorous T cell responses”; in [9] (B10.AKM mice (Table 2)), “immunogenic”; in assay [9] (B10.D2 mice (Table 1)), “failed to respond”; in [9] (BALB/c mice (Fig. 1 B)), “nonimmunogenic”; in [9] (DBA/2 mice (Table 1)), “nonimmunogenic”. In addition, in assay [9] (dm2 mutant mice, not expressing Ld (Fig. 1 C)), the immunogenicity entry is “immunogenic”. The “phenotype of self-peptide (cryptic or dominant)” value in [9] (A.TL and B10.MBR mice) is “cryptic”; in assay [9] (B10.A(5R) mice), “dominant”; in [9] (parental H-2s and H-2b mice) it was “dominant”. For the same substance, the “T cell proliferation after immunization” value in assay [9] (B10.A(5R) mice (Fig. 6), five mice tested individually) is “no T cell proliferation was detected”.
